Data on 50 compounds can be found in patent US20230348456A1, “QUINAZOLINONES, PHARMACEUTICAL COMPOSITIONS CONTAINING THE SAME, AND METHODS OF USING THE SAME” (Repare Therapeutics Inc., priority 2022, published 2023).

Sequence of recombinant human Myt1 (Q99640 whole entry): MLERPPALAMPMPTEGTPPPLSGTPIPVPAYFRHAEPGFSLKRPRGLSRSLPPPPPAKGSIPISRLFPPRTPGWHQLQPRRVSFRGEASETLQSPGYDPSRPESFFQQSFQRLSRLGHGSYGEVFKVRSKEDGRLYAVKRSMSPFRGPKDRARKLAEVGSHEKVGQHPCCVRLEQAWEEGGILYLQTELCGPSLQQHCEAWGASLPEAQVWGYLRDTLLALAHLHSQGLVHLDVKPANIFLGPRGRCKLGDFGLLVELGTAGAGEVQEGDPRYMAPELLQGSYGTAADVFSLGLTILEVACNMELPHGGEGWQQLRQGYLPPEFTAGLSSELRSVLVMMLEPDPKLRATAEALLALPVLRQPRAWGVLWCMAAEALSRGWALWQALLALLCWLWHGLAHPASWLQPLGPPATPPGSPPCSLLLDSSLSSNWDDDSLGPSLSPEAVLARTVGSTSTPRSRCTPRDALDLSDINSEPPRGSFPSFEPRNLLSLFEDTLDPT

This test addresses recombinant human Myt1 (Homo sapiens (Human), UniProt Q99640). As to the kind of experiment: Myt1 enzymatic assay (ADP-Glo kinase assay). Type of test: biochemical. As to conditions: recombinant human Myt1 18 nM, ATP 10 μM. The method, then:
Detection of Myt1 kinase activity utilized a recombinant human Myt1 kinase assay measuring the hydrolysis of ATP using a commercially available ADP-Glo Assay (ADP-Glo™ Kinase Assay from Promega, 10 000 assays, #V9102). Briefly, 5 μL recombinant human Myt1 (full length PKMYT1 recombinant human protein expressed in insect cells from Thermo Fisher #A33387; ˜80% purity) was prepared in reaction buffer (70 mM HEPES, 3 mM MgCl2, 3 mM MnCl2, 50 μg/ml PEG 20000, 3 μM Na-orthovanadate, 1.2 mM DTT) and added to 384 well white polystyrene, flat bottom well, non-treated, microplate (Corning #3572). After this, 5 μL of compounds (diluted in reaction buffer to 0.5% DMSO) was added to the microplate and the plate was spun briefly and incubated at 22° C. for 15 minutes. Ultra-Pure Adenosine Triphosphate (ATP) solution (ADP-Glo kit from Promega) was diluted in reaction buffer and 5 μL was added to the microplate, spun down briefly and incubated for 60 minutes at 30° C. The final Myt1 enzyme concentration was 18 nM and the final ATP concentration was 10 μM. After the 60-minute incubation, 15 μL of ADP-Glo reagent was added and the plate was spun briefly and sealed and incubated in the dark for 40 minutes at 22° C. Following this, 30 μL of kinase detection reagent was added per well and the plate was spun briefly, sealed and incubated for 45-60 minutes at 22° C. in the dark. Luminescence was read using the Envision (250 ms integration). The IC50 and the % max inhibition were calculated for each inhibitor compound tested.
With `Cc1ccc2[nH]ncc2c1-c1cc(-c2cccc(OCc3ncco3)n2)c2nc[nH]c(=O)c2c1N` [Compound 91], the IC50 was 5 nM.

Regarding `Nc1c(-c2cccc3[nH]ncc23)cc(C2CC2)c2nc(-c3cccnc3)[nH]c(=O)c12` [Compound 92], the IC50 was 7 nM.

For `Cc1ccc(O)cc1-c1cc(-c2nccs2)c2c(c1N)C(=O)NC2` [Compound 93], the IC50 worked out at 22 nM.

Consider `Nc1c(-c2cccc3[nH]ncc23)cc(-c2cccc(OCC(=O)O)c2)c2nc[nH]c(=O)c12` [Compound 94], for which the IC50 came to 46 nM.

For `Nc1c(-c2cccc3[nH]ncc23)cc(-c2cccc(OCc3ncco3)c2)c2nc[nH]c(=O)c12` [Compound 95], the IC50 turned out to be 10 nM.

On to `Nc1c(-c2cccc3[nH]ncc23)ccc2nc(-c3ccncc3)[nH]c(=O)c12` [Compound 96], for which the IC50 was found to be 67 nM.

For `Cc1ccc2[nH]ncc2c1-c1cc(-c2cccc(OC[C@H]3COCCO3)n2)c2nc[nH]c(=O)c2c1N` [Compound 97], the IC50 came out at 10 nM.

For `Cc1ccc2[nH]ncc2c1-c1cc(-c2nccs2)c2nc[nH]c(=O)c2c1N` [Compound 98], the IC50 came to 5 nM.

For `Cc1ccc2[nH]ncc2c1-c1cc(-c2cccc(F)n2)c2nc[nH]c(=O)c2c1N` [Compound 99], the IC50 was 17 nM.

`Nc1c(-c2cccc3[nH]ncc23)cc(-c2cnn(C3COC3)c2)c2nc(-c3cccnc3)[nH]c(=O)c12` [Compound 100]: the IC50 is 5 nM.

For the compound `Cc1ccc2[nH]ncc2c1-c1cc(-c2cccc(OC[C@@H]3COCCO3)n2)c2nc[nH]c(=O)c2c1N` [Compound 101], the IC50 was determined as 11 nM.

As to `Cc1ccc2[nH]ncc2c1-c1cc(-c2cccc(OCc3ncccn3)n2)c2nc[nH]c(=O)c2c1N` [Compound 102], the IC50 came to 10 nM.

`COCCOc1ccc(-c2nc3c(Br)cc(-c4cccc5[nH]ncc45)c(N)c3c(=O)[nH]2)cn1` [Compound 103]: the IC50 came to 8 nM.

For `Cc1ccc(O)cc1-c1cc(C2=CCOCC2)c2c(c1N)C(=O)NC2` [Compound 105], the IC50 came out at 641 nM.

On to `Nc1c(-c2cccc3[nH]ncc23)cc(Br)c2nc[nH]c(=O)c12` [Compound 106], for which the IC50 came to 24 nM.

Take `N#Cc1csc(-c2cc(-c3cccc4[nH]ncc34)c(N)c3c(=O)[nH]cnc23)n1` [Compound 107]: the IC50 is 3 nM.

On to `Cc1ccc(O)cc1-c1cc(-c2ncccn2)c2c(c1N)C(=O)NC2` [Compound 108], for which the IC50 turned out to be 73 nM.

As to `Nc1c(-c2cccc3[nH]ncc23)ccc2nc[nH]c(=O)c12` [Compound 109], the IC50 was 122 nM.

Turning to `Cc1ccc2[nH]ncc2c1-c1cc(-c2cccc(OC3CCOCC3)n2)c2nc[nH]c(=O)c2c1N` [Compound 110], the IC50 was 7 nM.

For `Nc1c(-c2cccc3[nH]ncc23)cc(-c2nccs2)c2nc(-c3cccnc3)[nH]c(=O)c12` [Compound 111], the IC50 came to 4 nM.

On to `Nc1c(-c2cccc3[nH]ncc23)cc(-c2nccs2)c2nc(CCc3cccnc3)[nH]c(=O)c12` [Compound 112], for which the IC50 came to 34 nM.

As for `Cc1ncccc1-c1nc2c(-c3nccs3)cc(-c3cccc4[nH]ncc34)c(N)c2c(=O)[nH]1` [Compound 113], the IC50 worked out at 94 nM.

Regarding `Nc1c(-c2cccc3[nH]ncc23)cc(-c2ncc(Cl)s2)c2nc[nH]c(=O)c12` [Compound 114], the IC50 is 28 nM.

As for `Nc1c(-c2cccc3[nH]ncc23)cc(-c2ncc(C(F)(F)F)s2)c2nc[nH]c(=O)c12` [Compound 115], the IC50 came to 109 nM.

Take `Nc1c(-c2cccc3[nH]ncc23)cc(-c2nc(Cl)cs2)c2nc[nH]c(=O)c12` [Compound 116]: the IC50 was found to be 13 nM.

On to `Nc1c(-c2cccc3[nH]ncc23)cc(-c2ccc(F)s2)c2nc[nH]c(=O)c12` [Compound 117], for which the IC50 came out at 15 nM.

Take `N#Cc1ccc(-c2cc(-c3cccc4[nH]ncc34)c(N)c3c(=O)[nH]cnc23)s1` [Compound 118]: the IC50 is 11 nM.

On to `Nc1c(-c2cccc3[nH]ncc23)cc(-c2nc(C(F)(F)F)cs2)c2nc[nH]c(=O)c12` [Compound 119], for which the IC50 is 55 nM.

Turning to `Nc1c(-c2cccc3[nH]ncc23)cc(-c2ncc(F)cn2)c2nc[nH]c(=O)c12` [Compound 120], the IC50 worked out at 189 nM.

As to `Cc1ccc(-c2cc(-c3cccc4[nH]ncc34)c(N)c3c(=O)[nH]cnc23)s1` [Compound 121, 5-amino-6-(1H-indazol-4-yl)-8-(5-methylthiophen-2-yl)quinazolin-4(3H)-one], the IC50 amounted to 62 nM.

In the case of `Nc1c(-c2cccc3[nH]ncc23)cc(-c2ncccn2)c2nc[nH]c(=O)c12` [Compound 122], the half-maximal inhibitory concentration (IC50) turned out to be 170 nM.

In the case of `Nc1c(-c2cccc3[nH]ncc23)cc(-c2ccc(Cl)s2)c2nc[nH]c(=O)c12` [Compound 123], the IC50 is 89 nM.

With `Nc1c(-c2cccc3[nH]ncc23)cc(-c2cc(F)cc(F)c2)c2nc[nH]c(=O)c12` [Compound 124], the IC50 worked out at 66 nM.

Take `Nc1c(-c2cccc3[nH]ncc23)cc(-c2ccc(C(F)(F)F)cc2)c2nc[nH]c(=O)c12` [Compound 125]: the IC50 is 839 nM.

For `Nc1c(-c2cccc3[nH]ncc23)cc(-c2ccc(C(F)(F)F)s2)c2nc[nH]c(=O)c12` [Compound 126], the IC50 was found to be 880 nM.

Turning to `N#Cc1cnc(-c2cc(-c3cccc4[nH]ncc34)c(N)c3c(=O)[nH]cnc23)s1` [Compound 128], the IC50 was determined as 5 nM.

For the compound `Cn1ccc(-c2cc(-c3cccc4[nH]ncc34)c(N)c3c(=O)[nH]cnc23)n1` [Compound 129], the 50% inhibitory concentration (IC50) is 23 nM.

Turning to `Nc1c(-c2cccc3[nH]ncc23)cc(-c2cnccn2)c2nc[nH]c(=O)c12` [Compound 130], the IC50 amounted to 45 nM.

As to `Nc1c(-c2cccc3[nH]ncc23)cc(-c2cccnn2)c2nc[nH]c(=O)c12` [Compound 131], the IC50 was 70 nM.

As for `Nc1c(-c2cccc3[nH]ncc23)cc(-c2ccns2)c2nc[nH]c(=O)c12` [Compound 132], the IC50 turned out to be 4 nM.

As to `Cc1ccc2[nH]ncc2c1-c1cc(Br)c2nc[nH]c(=O)c2c1N` [Compound 133], the IC50 was determined as 26 nM.

As to `Cc1ccc(O)c(C)c1-c1cc(C2CC2)c2nc(-c3ccncc3)[nH]c(=O)c2c1N` [Compound 134, 5-amino-8-cyclopropyl-6-(3-hydroxy-2,6-dimethyl-phenyl)-2-(4-pyridyl)-3H-quinazolin-4-one], the IC50 stood at 5 nM.

Regarding `Cc1ccc(O)c(C)c1-c1cc(-c2ccn(C3CC3)n2)c2nc(-c3ccncc3)[nH]c(=O)c2c1N` [Compound 135], the IC50 was 3 nM.

In the case of `Cc1ccc(O)cc1-c1cc(-c2ccccn2)c2c(c1N)C(=O)NC2` [Compound 136], the IC50 amounted to 548 nM.

In the case of `Cc1ccc(O)cc1-c1cc(-c2ccccn2)c2nc[nH]c(=O)c2c1N` [Compound 137], the IC50 is 51 nM.

Take `Cc1ccc(O)cc1-c1cc(Br)c2nc[nH]c(=O)c2c1N` [Compound 138]: the IC50 amounted to 41 nM.

As to `Cc1ccc(O)c(C)c1-c1cc(-c2nccs2)c2c(c1N)C(=O)NC2` [Compound 139], the IC50 is 7 nM.

Take `Cc1ccc(O)c(C)c1-c1cc(-c2ccc(F)cn2)c2c(c1N)C(=O)NC2` [Compound 140]: the half-inhibitory concentration (IC50) came to 111 nM.

For the compound `Cc1ccc(O)c(C)c1-c1cc(Br)c2c(c1N)C(=O)NC2` [Compound 141], the IC50 amounted to 92 nM.

With `Cc1ccc(O)cc1-c1cc(-c2ncc(NC(=O)C3CC3)s2)c2c(c1N)C(=O)NC2` [Compound 142], the IC50 worked out at 2240 nM.

As a reminder, the IC50 is the concentration needed to halve the response being measured.
